{"source": "patent US20200368239A1", "about": "“TREATMENT OF AMYOTROPHIC LATERAL SCLEROSIS USING TRAMETINIB” (priority 2019, published 2020)", "key": {"MEK1/2": {"tested_on": "MEK1/2", "experiment": "Western blot of pERKs and ERKs in mice whole brain lysates after oral administration", "type": "in vivo", "conditions": "wild type mice", "protocol": "FIG. 2 provides a representative image of western blot analysis of pERKs and ERKs in mice whole brain lysates. ERKs were included as a loading control.\nCells and tissues were washed twice with ice-cold phosphate-buffered saline (PBS) and extracted by homogenizing with Ripa buffer (10 mM HEPES, 1.5 mM MgCl2, 10 mM KCl, 0.01 M DTT, protease inhibitors, pH 7.9). Lysates were centrifuged at 13,000 rpm for 20 min at 4° C. and the protein content in the supernatant was determined using Bradford assay (Bio-rad, Hercules, Calif.). Protein from each sample was subjected to 8%-15% SDS-PAGE, and the resolved proteins were transferred to nitrocellulose or polyvinylidene fluoride membrane. The membranes were blocked with 5% nonfat milk powder in Tris-buffered saline/Tween 20 (TBST) for 1 h at room temperature, then incubated with anti-phospho-ERK (Cell signaling), anti-ERK (Cell signaling), anti-LAMP1 (Abcam), anti-LC3 (Cell signaling), anti-cathepsin B (Cell signaling), anti-p62 (Cell signaling), anti-p62 (5114, Cell signaling), anti-phospho-mTOR (5536, Cell signaling), anti-mTOR (2983, Cell signaling), anti-phospho-ULK1 (14202, Cell signaling), anti-ULK1 (8054, Cell signaling), anti-TFEB (852501, Biolegend), and anti-GAPDH (Cell signaling) overnight at 4° C. […] The detected signals were quantified using a LAS-4000 system (Fuji Film, Tokyo, Japan)."}, "[1]": {"tested_on": "mRNA expression in whole brain", "experiment": "Bulk RNA-Seq of whole brains of wild type mice after oral administration", "type": "in vivo", "conditions": "FC ≥1.3, FDR <0.05", "protocol": "To evaluate the transcriptional profiles in the brain, bulk RNA-Seq was performed using whole brains of wild type mice following oral administration of trametinib. Gene ontology terms were enriched at each weekly time point, indicating the relevance of cellular function such as synaptic potential, nervous system development, immune response, and incorrect protein folding in a temporal pattern (FIG. 3A). Decrease in MEK-ERK signaling with trametinib administration during week 1 and week 2 of administration can be indirectly confirmed through the decrease in expression of FGF receptor signaling and GPCR signaling related genes.\nIn the second week, we observed neuroblast proliferation-related and axon growth-related gene expression, followed by expression of genes for immune reaction and incorrect protein modification reaction in the third and fourth week, respectively. It is important to note that increase in the gene-sets associated with neurogenesis and the induction of lysosomal activity both occurred within the four-week period, as illustrated by the gene expression heatmap (FIGS. 4A-4B). […] Their FCs were between −2.26 and 3.71.\nRNA was isolated from the mice whole brain and cDNA libraries for RNA sequencing were prepared using the TruSeq Stranded mRNA Prep Kit (Illumina, San Diego, Calif.) according to the manufacturer's guidelines (l). The libraries were sequenced on the Illumina Nextseq500 platform and the reads were mapped to the reference Mouse mm10 genome using Tophat v2.0.13. The total number of reads mapped to the transcriptomes were 24,532 genes and the genes with 0 count in at least one sample were removed before differential expression analysis. There was a total of 18,727 genes after the removal of genes with 0 count. To define differentially expressed genes (DEG), we set up a stringent statistic cutoff of fold change (FC) of ≥1.3 and a false discovery rate (FDR)<0.05. A total of 500 DEGs was identified between the vehicle-treated group and trametinib-treated group in the first week, 498 DEGs in the second week, 446 genes in the third week and 538 genes in the fourth week. Gene ontology was performed with Gene Ontology program of the gene ontology consortium. Heatmap analysis was performed by R studio using the DEG list related with synapse, neurogenesis and lysosome."}, "SOD1-G93A ALS model mice": {"tested_on": "SOD1-G93A ALS model mice", "experiment": "Survival of SOD1-G93A ALS model mice", "type": "in vivo", "conditions": "0.1 or 0.2 mg/kg/day oral", "protocol": "Therapeutic efficacy of trametinib was examined in the SOD1-G93A transgenic mouse model, the most widely used animal model for ALS research. The SOD1-G93A ALS model mice, TgN [B6SJL-Tg (SOD1-G93A) 1Gur], were purchased from Jackson Laboratory (ME, USA) and bred at 21±2° C., 35-65% RH.\nIn addition, immunohistochemical analysis was performed with the spinal cords of the mice to evaluate the efficacy of trametinib on the tissue, cellular, and molecular level.\nAfter the onset of symptoms (around 16 weeks after birth), trametinib was orally administered to two groups of ALS model mice every day at the doses of 0.1 mg/kg or 0.2 mg/kg (mpk). As controls, wild type (WT) mice and ALS model mice were treated with vehicle.\nMice with motor performance score at or lower than 3 were euthanized as they were not able to feed themselves. Survival days for each group of mice were counted."}, "[2]": {"tested_on": "spinal cord neurons of SOD1-G93A ALS model mice", "experiment": "Histological and immunohistochemical analysis of spinal cord of SOD1-G93A ALS model mice", "type": "in vivo", "conditions": "vs vehicle-treated ALS mice", "protocol": "After the behavioral tests above were completed, the spinal cords of the euthanized mice were removed, fixed, and processed. The spinal cord tissue was sliced to a thickness of 10 μm with the CM1860 cryomicrotome (Leica Biosystems, Germany). Immunohistochemical analysis was performed using various staining methods to examine the spinal cord tissue, motor neurons, and protein expression in the motor neurons.\nThrough Nissl staining, the condition and distribution of neurons can be examined. Nissl staining solution contained 0.1% w/v Cresyl Violet (Sigma, C-5042, USA) and 0.1% v/v glacial acetic acid.\nIn order to examine the condition of the motor neurons, the spinal cord tissues were subjected to NeuN immunofluorescent staining to observe all types of neurons (red in FIG. 11) and SMI-32 staining (SMI-32 antibody binds specifically to motor neurons) to observe motor neurons (green in FIG. 11).\nA longitudinal section of the spinal cord tissue was stained with tau antibody to examine the condition of the axonal nerve tract.\nA cross-section of the spinal cord was stained with Tuj 1, an axonal marker, to examine the condition of axons in the tested mice.\nMAP2 staining was performed to observe the condition of dendrites projecting out of the neurons.\n(§1) Mice were perfused with ice-cold phosphate buffered saline (PBS) and followed by 4% paraformaldehyde (PFA). Spinal cords were dissected and analyzed by immunohistochemistry. For cryosections, spinal cords were prepared into sections of 10 μm slices. For immunostaining, the sections were incubated with anti-Map2 (Millipore, Burlington, Mass.), anti-Tuj 1 (Cell signaling, Danvers, Mass.), anti-SMI-32 (Biolegend, San Diego, Calif.), anti-LAMP1 (Abcam, Cambridge, UK), or anti-LC3 (Cell signaling) antibodies. This step was followed by incubation with Alexa Fluor 488-conjugated anti-mouse IgG (Thermo, Waltham, Mass.), Alexa Fluor 488-conjugated anti-rat IgG (Thermo), Alexa Fluor 555-conjugated anti-rabbit IgG secondary antibodies (Thermo). The sections were counterstained with DAPI. The immunofluorescent images were captured using a LSM700 Laser-Scanning confocal microscope (Carl Zeiss, Heildenheim, Germany). For Nissl staining, the sections were incubated with Nissl staining solution (0.1% w/v Cresyl Violet (Sigma, C-5042, USA) and 0.1% v/v glacial acetic acid). The length of the Map2 and Tuj 1 positive dendrites and axons were measured using Icy program. The LC3-LAMP1 co-localization was observed under a confocal microscopy using a LSM700 microscope (Carl Zeiss)."}, "[3]": {"tested_on": "LAMP1 / LC3 in spinal cord of SOD1-G93A ALS model mice", "experiment": "LC3 and LAMP1 immunofluorescence in spinal cord tissues (autophagosome-lysosome fusion)", "type": "in vivo", "conditions": "vs vehicle-treated ALS model mice", "protocol": "as §1"}, "patients with ALS": {"tested_on": "patients with ALS", "experiment": "Phase 1/2a clinical trial in patients with ALS", "type": "in vivo, human", "description": "Patients are selected based on the following criteria for a sequential dose-escalation, randomized, active-controlled, phase ½a clinical trial to evaluate the safety, tolerability and efficacy of trametinib in patients with ALS.\nPatients diagnosed as definite, probable or probable-laboratory-supported ALS according to El Escorial Criteria. Patients of less than 2 years after the onset of ALS. Patients who meet the criteria of K-ALSFRS-R score (total score of at least 30 and score of at least 2 for each item) and forced vital capacity (% FVC≥70%, or 60%≤% FVC<70% with K-ALSFRS-R score ≥3 for items 10 to 12).\nPatients with primary lateral sclerosis, progressive muscular atrophy or lower motor neuron disease. […] Patients who have permanently ceased the administration of riluzole due to lack of tolerability and/or efficacy. […]\nAs primary outcome measures, safety and tolerability of trametinib is tested based on observation of adverse events. As secondary outcome measures, K-ALSFRS-R (Korean version of Amyotrophic Lateral Sclerosis Functional Rating Scale-Revised) scores are measured in the patients by independent outcome assessors. Additionally, change in forced vital capacity (FVC) from baseline, trough concentrations of trametinib in cerebrospinal fluid (CSF) and trough concentrations of trametinib in plasma are further measured."}, "in vivo": {"experiment": "in vivo", "conditions": "mouse, po, 0.8 mg/kg", "quoted_text": "Trametinib (Medchemexpress, Monmouth Junction, N.J.) was micronized and suspended in the vehicle containing 5% mannitol, 1.5% hydroxypropyl methylcellulose and 0.2% sodium lauryl sulfate. For pharmacokinetic analysis, 0.05, 0.2 and 0.8 mg/kg of trametinib were orally administered in to 7-week-old normal mice (n=5 per group) as a single administration. Mice were sacrificed at each identical time points."}}}
{"compound": "CC(=O)Nc1cccc(-n2c(=O)n(C3CC3)c(=O)c3c(Nc4ccc(I)cc4F)n(C)c(=O)c(C)c32)c1", "note": "[Trametinib, acetamide, N-[3-[3-cyclopropyl-5-[(2-fluoro-4-iodophenyl)amino]-3,4,6,7-tetrahydro-6,8-dimethyl-2,4,7-trioxopyrido[4,3-d]pyrimidin-1(2H)-yl]phenyl]]", "values": [{"measurement": "pERK expression in the brain", "setting": "MEK1/2", "result": "significant decrease in pERK expression"}, {"measurement": "number of differentially expressed genes (DEGs) vs vehicle-treated group", "setting": "[1]; first week", "result": 500}, {"measurement": "number of differentially expressed genes (DEGs) vs vehicle-treated group", "setting": "[1]; fourth week", "result": 538}, {"measurement": "number of differentially expressed genes (DEGs) vs vehicle-treated group", "setting": "[1]; second week", "result": 498}, {"measurement": "number of differentially expressed genes (DEGs) vs vehicle-treated group", "setting": "[1]; third week", "result": 446}, {"measurement": "survival compared to the vehicle-treated groups", "setting": "SOD1-G93A ALS model mice", "result": "prolonged"}, {"measurement": "axon condition (Tuj 1 staining, cross-section)", "setting": "[2]", "result": "relatively well protected long axons"}, {"measurement": "axonal tract condition (tau staining, longitudinal section)", "setting": "[2]", "result": "reduced number of abnormal axonal spheroids"}, {"measurement": "dendrite condition (MAP2 staining)", "setting": "[2]", "result": "quite well protected"}, {"measurement": "motor neuron shape (SMI-32 and NeuN staining)", "setting": "[2]", "result": "elongated neurite shape was relatively well preserved"}, {"measurement": "number of neurons in spinal cord (Nissl staining)", "setting": "[2]", "result": "retained more neurons than the vehicle-treated group"}, {"measurement": "LAMP1 signal (lysosome marker)", "setting": "[3]", "result": "LAMP1 signal was restored"}, {"measurement": "fusion of lysosome and autophagosome (LC3-LAMP1 co-localization)", "setting": "[3]", "result": "restored as well"}, {"measurement": "symptoms associated with ALS in treated patients", "setting": "patients with ALS; 0.5, 1 or 2 mg trametinib", "result": "reduction of a behavioral, physiological and/or pathological symptom associated with ALS"}, {"measurement": "level of one or more markers after treatment", "setting": "patients with ALS; some patients", "result": "change in the level of one or markers"}, {"measurement": "Kp", "setting": "in vivo", "result": 0.477}]}
